“And” between values parts separate entries of the source, which are not always exact repeats. Equal entries are not always repeated. “Also recorded” adds a separate entry of the source.
Test system: patients recently hospitalized for an Acute Coronary Syndrome (ACS)
Assay: dal-OUTCOMES phase III trial with pharmacogenomic (GWAS) analysis of cardiovascular events by ADCY9 genotype
Format: in vivo, human
Set-up: key to Predicted response: R: Responsive; PR: Partial Responsive; NR: Non Responsive
Experimental: The dalcetrapib mortality and morbidity trial (dal-OUTCOMES) was a double-blind, randomized, placebo-controlled, parallel group, multi-centre study in stable CHD patients recently hospitalized for acute coronary syndrome (ACS). The study was conducted to test the hypothesis that CETP inhibition will reduce the risk of recurrent cardiovascular events in patients with recent ACS by raising levels of HDL-C through CETP inhibition. Eligible patients entered a single-blind placebo run-in period of approximately 4 to 6 weeks to allow for patients to stabilize and for completion of planned revascularization procedures. At the end of the run-in period, eligible patients in stable condition were randomized in a 1:1 ratio to 600 mg of dalcetrapib or placebo on top of evidence-based medical care for ACS. Dalcetrapib is an inhibitor of cholesterol-ester transfer protein (CETP). […] The trial was interrupted in May 2012 by the DSMB on grounds of futility.
Dal-OUTCOMES trial (NC20971) was a double blind, randomized, placebo-controlled, parallel group, multi-center, phase III study to assess the safety and efficacy of the CETP inhibitor dalcetrapib in patients recently hospitalized for an Acute Coronary Syndrome (ACS). At time of the interim analysis the study included 15871 randomized patients, distributed over two treatment arms: placebo (7933 patients) and dalcetrapib (600 mg daily; 7938 patients). […] The dal-OUTCOMES study details can be found in G. Schwartz et al., N. Engl. J. Med. 367; 22, 2012.\
Whole genome analysis was performed in GLP-environment at the Beaulieu-Saucier Pharmacogenomics Centre. The Infinium® HumanOmni25Exome-8v1_A BeadChip (Illumina, San Diego, Calif.) including 2,567,845 genomic markers was used and processed according to the manufacturer's specifications. Approximately 200 ng of genomic DNA was whole-genome amplified, fragmented, and hybridized to locus-specific probes bound to the surface of each BeadChip. DNA was genotyped using a fluorescently labelled single base extension assay. BeadChips were scanned and analyzed using the Illumina® iScan Reader. Infinium® process controls were monitored and all results were within manufacturer's specifications. Scanned images were analyzed using Illumina's GenomeStudio® version 2011.1 with the GenTrain 2.0 cluster algorithm, using a No-Call threshold of 0.15, without manual cluster adjustment and using the manufacturer's Illumina® HumanOmni25Exome-8v1_A cluster file. […] Three genotyping files in PLINK format generated by GenomeStudio® were combined and transformed to binary PLINK format.
Genotyping completion rate for samples and SNPs was set to 98%. SNPs with genotyping plate bias (based on the 96 well plates used to dilute DNA samples) were flagged but not removed as the effect of genetic ancestry could not be excluded. Pairwise IBD was used to conduct close familial relationship checks. We flagged and removed all but one pair-member of related pairs and sample duplicates (IBS2*ratio>0.80) based on a selection of uncorrelated SNPs (r^2<0.1). The pairwise IBS matrix was used as a distance metric to identify cryptic relatedness among samples and sample outliers by multi-dimensional scaling (MDS). The first two MDS components of each subject were plotted including the genotypes of HapMap CEU, JPT-CHB, and YRI data (keeping only founder individuals). Outliers from the main Caucasian cluster were flagged and removed by k-nearest neighbour. (Supplementary FIG. 1) The scree plot and the cumulative explained variance were computed using the smartpca program of the EIGENSOFT suite (version 3.0). Options used were a numoutlieriter (maximum number of outlier removal iterations) of 0 (turned off) and altnormstyle (normalization formula) equal to NO. ^4 (Supplementary FIG. 2)
A statistical analysis plan was developed at the Beaulieu-Saucier Pharmacogenomics Centre and the final version approved prior to genotyping completion in October 2012. […]

SMILES: CCC(CC)CC1(C(=O)Nc2ccccc2SC(=O)C(C)C)CCCCC1 [dalcetrapib, thioisobutyric acid S-(2-{[1-(2-ethyl-butyl)-cyclohexanecarbonyl]-amino}-phenyl) ester]
- event rate in the primary efficacy endpoint (cardiovascular events), dalcetrapib arm compared to the placebo arm (all patients, 600 mg daily): lack of efficacy relative to statins alone; also recorded: did not show a significant reduction in cardiovascular events; also recorded: no evidence of reduction of the event rate
- HDL-c (patients on treatment, dal-OUTCOMES): marked increase
- HR for events, additive genetic effect of one allele (rs1967309, dal-Outcomes treatment arm, Cox proportional hazards): 0.65 (95% CI 0.55, 0.76)
- HR (95% CI) for time to events, dalcetrapib treatment arm only, genotype comparison (rs1967309 AA vs GG): 0.40 (95% CI 0.28, 0.57) and 0.4 (0.28, 0.57)
- HR (95% CI) for time to events, dalcetrapib treatment arm only, genotype comparison (rs1967309 GA vs GG): 0.68 (95% CI 0.55, 0.84) and 0.68 (0.56, 0.84)
- Predicted response (rs1967309 genotype AA): R
- HR for time to events, dalcetrapib treatment arm versus placebo arm (rs1967309 genotype GA): 0.94
- Predicted response (rs1967309 genotype GA): PR
- HR for time to events, dalcetrapib treatment arm versus placebo arm (rs1967309 genotype GG): 1.27
- Predicted response (rs1967309 genotype GG): NR
- HR (95% CI) for time to events, dalcetrapib treatment arm only, genotype comparison (rs2239310 AG vs AA): 0.71 (0.58,0.87)
- HR (95% CI) for time to events, dalcetrapib treatment arm only, genotype comparison (rs2239310 GG vs AA): 0.43 (0.29, 0.63)
- HR for time to events, dalcetrapib treatment arm versus placebo arm (rs2239310 genotype AA): 1.16
- Predicted response (rs2239310 genotype AA): NR
- HR for time to events, dalcetrapib treatment arm versus placebo arm (rs2239310 genotype AG): 0.96
- Predicted response (rs2239310 genotype AG): PR
- HR for time to events, dalcetrapib treatment arm versus placebo arm (rs2239310 genotype GG): 0.6
- Predicted response (rs2239310 genotype GG): R
- HR (95% CI) for time to events, dalcetrapib treatment arm only, genotype comparison (rs2283497 AA vs CC): 0.53 (0.37, 0.76)
- HR (95% CI) for time to events, dalcetrapib treatment arm only, genotype comparison (rs2283497 CA vs CC): 0.83 (0.67, 1.02)
- HR for time to events, dalcetrapib treatment arm versus placebo arm (rs2283497 genotype AA): 0.57
- Predicted response (rs2283497 genotype AA): R
- HR for time to events, dalcetrapib treatment arm versus placebo arm (rs2283497 genotype CA): 0.99
- Predicted response (rs2283497 genotype CA): PR
- HR for time to events, dalcetrapib treatment arm versus placebo arm (rs2283497 genotype CC): 1.23
- Predicted response (rs2283497 genotype CC): NR
- HR (95% CI) for time to events, dalcetrapib treatment arm only, genotype comparison (rs2531967 AA vs GG): 0.5 (0.29, 0.86)
- HR (95% CI) for time to events, dalcetrapib treatment arm only, genotype comparison (rs2531967 GA vs GG): 0.75 (0.61, 0.93)
- HR for time to events, dalcetrapib treatment arm versus placebo arm (rs2531967 genotype AA): 0.67
- Predicted response (rs2531967 genotype AA): R
- HR for time to events, dalcetrapib treatment arm versus placebo arm (rs2531967 genotype GA): 0.86
- Predicted response (rs2531967 genotype GA): PR
- HR for time to events, dalcetrapib treatment arm versus placebo arm (rs2531967 genotype GG): 1.12
- Predicted response (rs2531967 genotype GG): NR
- HR (95% CI) for time to events, dalcetrapib treatment arm only, genotype comparison (rs3730119 AA vs GG): 0.49 (0.22, 1.1)
- HR (95% CI) for time to events, dalcetrapib treatment arm only, genotype comparison (rs3730119 GA vs GG): 0.78 (0.62, 0.99)
- HR for time to events, dalcetrapib treatment arm versus placebo arm (rs3730119 genotype AA): 0.48
- Predicted response (rs3730119 genotype AA): R
- HR for time to events, dalcetrapib treatment arm versus placebo arm (rs3730119 genotype GA): 0.86
- Predicted response (rs3730119 genotype GA): PR
- HR for time to events, dalcetrapib treatment arm versus placebo arm (rs3730119 genotype GG): 1.08
- Predicted response (rs3730119 genotype GG): NR
- HR (95% CI) for time to events, dalcetrapib treatment arm only, genotype comparison (rs4786454 AA vs GG): 0.37 (0.15, 0.9)
- HR (95% CI) for time to events, dalcetrapib treatment arm only, genotype comparison (rs4786454 GA vs GG): 0.69 (0.54, 0.87)
- HR for time to events, dalcetrapib treatment arm versus placebo arm (rs4786454 genotype AA): 0.52
- Predicted response (rs4786454 genotype AA): R
- HR for time to events, dalcetrapib treatment arm versus placebo arm (rs4786454 genotype GA): 0.89
- Predicted response (rs4786454 genotype GA): PR
- HR for time to events, dalcetrapib treatment arm versus placebo arm (rs4786454 genotype GG): 1.06
- Predicted response (rs4786454 genotype GG): NR
- HR (95% CI) for time to events, dalcetrapib treatment arm only, genotype comparison (rs8049452 AA vs GG): 1.98 (1.51, 2.61)
- HR (95% CI) for time to events, dalcetrapib treatment arm only, genotype comparison (rs8049452 GA vs GG): 1.26 (0.99, 1.6)
- HR for time to events, dalcetrapib treatment arm versus placebo arm (rs8049452 genotype AA): 1.55
- Predicted response (rs8049452 genotype AA): NR
- HR for time to events, dalcetrapib treatment arm versus placebo arm (rs8049452 genotype GA): 0.97
- Predicted response (rs8049452 genotype GA): PR
- HR for time to events, dalcetrapib treatment arm versus placebo arm (rs8049452 genotype GG): 0.78
- Predicted response (rs8049452 genotype GG): R
- HR (95% CI) for time to events, dalcetrapib treatment arm only, genotype comparison (rs8061182 AG vs AA): 1.23 (0.98, 1.56)
- HR (95% CI) for time to events, dalcetrapib treatment arm only, genotype comparison (rs8061182 GG vs AA): 1.81 (1.37, 2.39)
- HR for time to events, dalcetrapib treatment arm versus placebo arm (rs8061182 genotype AA): 0.79

From patent US11549142B2, “CETP inhibitors for therapeutic use” (Hoffmann-La Roche Inc., priority 2013, dated 2023)
